18 compounds from EP0105732A2, “Histamine H2 receptor antagonists of the benzisothiazole amino and benzthiadiazine amino series” (BEECHAM GROUP PLC, priority 1982, dated 1984) can be followed below.

One assay deals with T1, histamine H2-receptor (Cavia porcellus, UniProt P47747).
T1 construct: The atria were dissected free and mounted in a jacketed 5 ml capacity tissue bath; from tissue; host or cells: guinea-pig isolated atria
The assay can be described thus: Guinea-pig isolated atria (antagonism of histamine positive chronotropic response). It is filed as cell-based. Here is the method: This test is designed to specifically detect histamine H2-receptor antagonists. Guinea-pigs of either sex, weighing between 250 and 500 g, were killed by cervical dislocation and exsanguination. The heart was removed and placed in cold McEwens solution. The atria were dissected free and mounted in a jacketed 5 ml capacity tissue bath containing McEwens solution maintained at 32 °C and gassed with a 95% oxygen, 5% carbon dioxide gas mixture. Atrial beating was detected by an auxotonic lever and from thence recorded on a Devices MX2 hot wire pen recorder. Atrial rate was derived from the amplified force signal using a Devices Instantaneous Ratemeter and recorded on the MX2 pen recorder. […] To avoid disruption of the tissue by repeated washing, responses to cumulative concentrations of histamine were obtained in the absence (control) and then presence of various concentrations of test compounds. The ability to antagonise histamine mediated positive chronotropic responses of this tissue is believed to be specific for H2-receptor antagonists. Such activity was assessed by examining the ability of test compounds to shift to the right the plotted concentration/response curves to histamine.

The test system of the next assay is gastric acid secretion. The assay can be described thus: perfused rat stomach preparation (histamine-stimulated acid secretion, anaesthetised rat). It is filed as in vivo. The settings on record: bolus intravenous, maximal reduction in hydrogen-ion concentration as percentage of control, histamine infusion; for inhibition in vivo at 0.5 µmol/kg: dose 0.5 µmole/kg; for inhibition in vivo at 0.2 µmol/kg: dose 0.2 µmole/kg; for inhibition in vivo at 1 µmol/kg: dose 1 µmole/kg; for inhibition in vivo at 0.1 µmol/kg: dose 0.1 µmole/kg. As for the experimental part: The ability of the compounds of the invention to modify the pH of gastric acid secretion was investigated as follows:
The modified (1) perfused stomach preparation (2) of the urethane (25% solution) anaesthetised rat, maintained at 37°C, allows the continuous measurement of pH during basal and stimulated acid secretion.
The lumen of the stomach of male Wistar rats (approximately 200 g bodyweight) was perfused, via a cannula designed to reduce the dead space of the stomach, with 5% glucose solution (37°C) at the rate of 3 ml/min. The perfusate was forced over the surface of the secretory mucosa only, the antrum being excluded. The effluent then passed over a microflow-type glass pH eletrode via a collecting funnel situated in the non- glandular forestomach.
The secretagogue histamine was administered as a constant intravenous infusion to produce a steady rate of acid secretion. Test compounds were administered in solution as bolus intravenous injections and any effect on the pH of the perfusate noted. The perfusate pH was recorded on a potentiometric recorder and anti-secretory responses were measured in terms of the maximal reduction in hydrogen-ion concentration expressed as a percentage of the control concentration.

Setting [1] is: Concentration 2.5 x 10^-7 Molar, 0.25 µM.
Where [2] appears, read: Concentration 5 x 10^-7 Molar, 0.5 µM.
[3] abbreviates: Concentration 7.5 x 10^-8 Molar, 0.075 µM.

T1 sequence (P47747 whole entry): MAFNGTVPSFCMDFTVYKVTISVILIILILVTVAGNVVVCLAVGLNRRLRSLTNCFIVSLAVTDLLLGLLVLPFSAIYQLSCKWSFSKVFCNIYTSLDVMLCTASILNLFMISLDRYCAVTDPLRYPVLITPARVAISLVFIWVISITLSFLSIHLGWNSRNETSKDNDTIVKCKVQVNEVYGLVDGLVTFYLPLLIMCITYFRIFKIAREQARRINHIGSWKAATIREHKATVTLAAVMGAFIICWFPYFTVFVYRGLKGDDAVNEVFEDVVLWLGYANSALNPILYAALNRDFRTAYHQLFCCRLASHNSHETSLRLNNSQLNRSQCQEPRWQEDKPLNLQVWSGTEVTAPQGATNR

As for `O=S1(=O)N=C(NCCCOc2cccc(CN3CCCCC3)c2)c2ccccc21` [Example 10, N-[3-(3-piperid-1-ylmethylphenoxy)propyl]-1,2-henzoiso-thiazole-3-amine-1,1-dioxide], the “Activity (Decrease in Histamine Potency)” value at histamine H2-receptor (setting [1]) is reported as “Active”. Moreover, in the assay with gastric acid secretion, the inhibition in vivo at 0.5 µmol/kg stood at 100%. As for `CN(C)Cc1ccc(CSCCNC2=NS(=O)(=O)c3cc(N)ccc32)o1` [Example 14, N^3-[2-(5-dimethylaminomethylfuran-2-ylmethylthio)ethyl]-1,2-benzoisothiazole-3,6-diamine-1,1-dioxide], on histamine H2-receptor (setting [2]), the “Activity (Decrease in Histamine Potency)” value is “Active”. Besides, the inhibition in vivo at 0.2 µmol/kg with gastric acid secretion came out at 60%.

As to `O=[N+]([O-])c1cccc2c1C(NCCCOc1cccc(CN3CCCCC3)c1)=NS2(=O)=O` [Example 11, N-[3-(3-piperid-1-ylmethylphenoxy)propyl]-4-nitro-1,2-benzoisothiazole-3-amine-1,1-dioxide], the “Activity (Decrease in Histamine Potency)” value on histamine H2-receptor (Concentration 1 x 10^-7 Molar, 0.1 µM) is “Active”. In the assay on gastric acid secretion, this compound came in with an inhibition in vivo at 0.5 µmol/kg of 100%. Take `NC(N)=Nc1nc(CSCCNC2=NS(=O)(=O)c3cccc(N)c32)cs1` [Example 20, N^3-[2-('2-guanidinothiazole-4-ylmethylthio)ethyl]-1,2-benzoisothiazole-3,4-diamine-1,1-dixide]: on histamine H2-receptor (setting [1]), the “Activity (Decrease in Histamine Potency)” value is reported as “Active”. The inhibition in vivo at 0.2 µmol/kg in the assay on gastric acid secretion worked out at 100%. Turning to `N=C(N)Nc1nc(CSCCNC2=NS(=O)(=O)c3cccc([N+](=O)[O-])c32)cs1` [Example 13, N-[2-(2-guanidinothiazol-4-ylmethylthio)ethyl]-4-nitro-1,2-benzoisothiazole-3-amine-1,1-dioxide], the “Activity (Decrease in Histamine Potency)” value at histamine H2-receptor (Concentration 1 x 10^-6 Molar) is recorded as “Active”. As for `CN(C)Cc1ccc(CSCCNC2=NS(=O)(=O)c3ccccc32)o1` [Example 3, N-[2-(5-dimethylaminomethylfuran-2-ylmethylthio)ethyl]-1,2-benzoisothiazole-3-amine-l,1-dioxide], the “Activity (Decrease in Histamine Potency)” value at histamine H2-receptor (setting [2]) was “Active”. In the assay on gastric acid secretion, this compound returned an inhibition in vivo at 1 µmol/kg of 100%. Consider `CN(C)Cc1cccc(OCCCNC2=NS(=O)(=O)c3ccccc32)c1` [Example 12, N-[3-(3-dimethylaminomethylphenoxy)propyl]-1,2-benzoiso-thiazole-3-amine-1,1-dioxide], for which the “Activity (Decrease in Histamine Potency)” value on histamine H2-receptor (Concentration 1 x 10^-6 Molar) is “Active”. Also, the inhibition in vivo at 0.5 µmol/kg in the assay on gastric acid secretion was determined as 94%.

In the assay with gastric acid secretion, `O=S1(=O)NC(NCCCOc2cccc(CN3CCCCC3)c2)=Nc2ccccc21` [Example 40, N-[3-(3-{1-piperidylmethyl}phenoxy)propyl]-1,2,4-benzothia-diazine-3-amine-1,1-dioxide] returned an inhibition in vivo at 0.5 µmol/kg of 94%. As to `CN(C)Cc1ccc(CSCCNC2=NS(=O)(=O)c3cccc([N+](=O)[O-])c32)o1` [Example 1, N-[2-(5-dimethylaminomethylfuran-2-ylmethylthio)ethyl]4-nitro-1,2-benzoisothiazole-3-amine-1,1-dioxide], the “Activity (Decrease in Histamine Potency)” value on histamine H2-receptor (Concentration 7.5 x 10^-7 Molar, 0.75 µM) is given as “Active”. Also, the inhibition in vivo at 0.2 µmol/kg with gastric acid secretion was found to be 87%. With `CN(C)Cc1ccc(CSCCNC2=NS(=O)(=O)c3cc(Cl)ccc32)o1` [Example 8, N-[2-(5-dimethylaminomethylfuran-2-ylmethylthio)ethyl]-6-chloro-1,2benzoisothiazole-3-amine-1,1-dioxide], the “Activity (Decrease in Histamine Potency)” value on histamine H2-receptor (Concentration 1 x 10^-5 Molar, 10 µM) is reported as “Active”. Besides, the inhibition in vivo at 5 µmol/kg in the assay on gastric acid secretion (dose 5 µmole/kg) was found to be 75%. Compound `CN(C)Cc1ccc(CSCCNC2=NS(=O)(=O)c3cc(S(=O)(=O)N(C)C)ccc32)o1` [Example 9, N-[2-(5-Dimethylaminomethylfuran-2-ylmethylthio)ethyl] -6-dimethylsulphamoyl-1,2-benzoisothizaole-3-amine-1,1-dioxide] displayed an inhibition in vivo at 0.1 µmol/kg in the assay on gastric acid secretion of 89%. In the assay on gastric acid secretion (dose 0.4 µmole/kg), `CN(C)Cc1ccc(CSCCNC2=NS(=O)(=O)c3c(N)cccc32)o1` [Example 15, N^3-[2-(5-dimethylaminomethylfuran-2-lmethylthio)ethyl]-1,2-benzoisothiazole-3,7-diamine-1,1dioxide] displayed an inhibition in vivo at 0.4 µmol/kg of 60%. `CN(C)Cc1ccc(CSCCNC2=NS(=O)(=O)c3c2cccc3[N+](=O)[O-])o1` [Example 7, N-2-(5-dimethylamihomethylfuran-2-ylmethylthioethyl] -7-nitro-1,2-benzoisothizaole-3-amine-1,1-dioxide] showed an inhibition in vivo at 0.5 µmol/kg in the assay on gastric acid secretion of 68%. As to `CN(C)Cc1ccc(CSCCNC2=Nc3ccccc3S(=O)(=O)N2)o1` [Example 39, N-[2-({5-Dimethylaminomethylfuran-2-yl)methylthio)ethyl] 1,2,4-benzothiadiazine-3-amine-1,1-dioxide], the “Activity (Decrease in Histamine Potency)” value at histamine H2-receptor (Concentration 1 x 10^-6 Molar) is “Active”. For the same compound, in the assay with gastric acid secretion, the inhibition in vivo at 0.5 µmol/kg turned out to be 78%. As to `CN(C)Cc1ccc(CSCCNC2=NS(=O)(=O)c3cccc(N)c32)o1` [Example 2, N^3-[2-(5-dimethylaminomethylfuran-2-ylmethylthio)ethyl]1,2-benzoisothiazole-3,4-diamine-1,1-dioxide], the “Activity (Decrease in Histamine Potency)” value on histamine H2-receptor (setting [3]) was “Active”. In the assay with gastric acid secretion, the inhibition in vivo at 0.2 µmol/kg came out at 100%. Regarding `CN(C)Cc1ccc(CSCCNC2=NS(=O)(=O)c3cc([N+](=O)[O-])ccc32)o1` [Example 6], the “Activity (Decrease in Histamine Potency)” value on histamine H2-receptor (setting [2]) is reported as “Active”. The inhibition in vivo at 1 µmol/kg with gastric acid secretion came to 75%. As for `Nc1cccc2c1C(NCCCOc1cccc(CN3CCCCC3)c1)=NS2(=O)=O` [Example 16, N^3-[3-(3-piperid-1-ylmethylphenoxy)propyl]-1,2-benzoiso-thiazole-3,4-diamine-1,1-dioxide], at histamine H2-receptor (setting [3]), the “Activity (Decrease in Histamine Potency)” value is “Active”. Further, the inhibition in vivo at 0.1 µmol/kg in the assay with gastric acid secretion came to 100%.

`CN(C)Cc1ccc(CSCCNC2=NS(=O)(=O)c3ccc([N+](=O)[O-])cc32)o1` [Example 5, N-[2-(5-dimethylaminomethylfuran-2-ylmethylthio)ethyl] 5-nitro-1,2-benzoisothizaole-3-amine-1,1-dioxide] came in with an inhibition in vivo at 2 µmol/kg in the assay with gastric acid secretion (dose 2 µmole/kg) of 80%.
